This is an account of results in the supplement of paper PMC11208160.
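Further: IS621 recombinase and bridge RNA in Escherichia coli cells.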

This data set in a line: recombinant barcode read abundance after kanamycin selection (control-corrected) (log10(CPM+1)); higher = more efficient recombination; sequences stand for … in AGTGCAGAGAAAATCGGCCAGTTTTCTCTGCCTGCAGTCCGCATGCCGT…AGATTTATGCAGCGGACTGCCTTTCTCCCAAAGTGATAAACCGGACAGTATCATGGACCGGTTTTCCCGGTAATCCGTATTTGCAAGGTTGGTTTCACT; site = the 11-nt target. Put shortly:
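Each value is log10(CPM+1). It describes recombination efficiency, taken as averaged, control-corrected counts per million of barcodes at recombinant junctions. The pooled E. coli library paired targets with IS621 bridge RNA target-binding loops, was co-electroporated with a donor plasmid, and was plated twice on chloramphenicol/ampicillin LB agar (control) and twice on chloramphenicol/ampicillin/kanamycin containing 0.1 mM IPTG.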
For “GGGCACTCTTGGGTTCTAACCTGTTGCGT (site GGGCACTCTAA)”, the “recombinant barcode read abundance (log10)” value was determined as 0.559. For “GGGCACTCTTGGGTTCTAACCTGTTGCGT (site GGGCACTCTAC)” the value was 2.97; for “GGGCACTCTTGGGTTCTAACCTGTTGCGT (site GGGCACTCTAG)”, 0.161; for “GGGCACTCTTGGGTTCTAACCTGTTGCGT (site GGGCACTCTAT)”, 2.27. For “GGGCTCACTTGGGTTCTAACCTGTTGCCT (site GGGCTCACTAG)” the value was 0.983; for “GGGCTCACTTGGGTTCTAACCTGTTGCCT (site GGTCCCACTAG)”, 0.184. In the case of “GGGCTCCCTTGGGTTCTAACCTGTTGCCG (site GGGCTCCCTCG)” it was 1.92; in that of “GGGCTCCCTTGGGTTCTAACCTGTTGCCG (site TACAATTCTAT)”, 0.128. Take “GGGCTTACTTGGGTTCTAACCTGTTGCCT (site GAGCTTACTAG)”: the “recombinant barcode read abundance (log10)” value came out at 0.695. In the case of “GGGCTTACTTGGGTTCTAACCTGTTGCCT (site GCGCTTACTAG)” it was 0.362; in that of “GGGCTTACTTGGGTTCTAACCTGTTGCCT (site GGGCTTACTAG)”, 0.178. In the case of “GGGCTTACTTGGGTTCTAACCTGTTGCCT (site GTGCTTACTAG)” it was 0.325; in that of “GGGGACCCTTGGGTTCTAACCTGTTGCGG (site GGGGACCCTAC)”, 2.34; in that of “GGGGACCCTTGGGTTCTAACCTGTTGCGG (site GGGGACCCTCC)”, 3.01. Regarding “GGGGACCCTTGGGTTCTAACCTGTTGCGG (site GGGGACCCTGC)”, the “recombinant barcode read abundance (log10)” value is 0.667. For “GGGGACCCTTGGGTTCTAACCTGTTGCGG (site GGGGACCCTTC)” the value was 1.55. Consider “GGGGACCCTTGGGTTCTAACCTGTTGCGT (site GGGGACCCTAC)”, for which the “recombinant barcode read abundance (log10)” value amounted to 3.4. “GGGGACCCTTGGGTTCTAACCTGTTGCGT (site GGGGACCCTCC)”: the “recombinant barcode read abundance (log10)” value was 1.46. For “GGGGACCCTTGGGTTCTAACCTGTTGCGT (site GGGGACCCTGC)” the value was 1.44; for “GGGGACCCTTGGGTTCTAACCTGTTGCGT (site GGGGACCCTTC)”, 1.18; for “GGGGAGTCTTGGGTTCTAACCTGTTGCTT (site GGGGAGCCTCA)”, 0.16. Consider “GGGGAGTCTTGGGTTCTAACCTGTTGCTT (site GGGGAGTCTAA)”, for which the “recombinant barcode read abundance (log10)” value was found to be 2.26. Turning to “GGGGCAACTTGGGTTCTAACCTGTTGCTA (site CGGGCTACTTA)”, the “recombinant barcode read abundance (log10)” value was 0.0424.

“GGGGCAACTTGGGTTCTAACCTGTTGCTA (site GGGGCAACTTA)”: the “recombinant barcode read abundance (log10)” value is 0.388. In the case of “GGGGCACCTTGGGTTCTAACCTGTTGCCT (site GGGGCACCTAA)” it was 0.216; in that of “GGGGCACCTTGGGTTCTAACCTGTTGCCT (site GGGGCACCTAC)”, 0.0542. In the case of “GGGGCACCTTGGGTTCTAACCTGTTGCCT (site GGGGCACCTAG)” it was 1.15; in that of “GGGGCACCTTGGGTTCTAACCTGTTGCCT (site GGGGCACCTAT)”, 0.556. With “GGGGCACCTTGGGTTCTAACCTGTTGCTT (site GGGGCACCTAA)”, the “recombinant barcode read abundance (log10)” value came to 2.29. For “GGGGCACCTTGGGTTCTAACCTGTTGCTT (site GGGGCACCTAC)” the value was 0.68; for “GGGGCACCTTGGGTTCTAACCTGTTGCTT (site GGGGCACCTAG)”, 1.48. “GGGGCACCTTGGGTTCTAACCTGTTGCTT (site GGGGCACCTAT)”: the “recombinant barcode read abundance (log10)” value was 2.06.

In the case of “GGGGCGTCTTGGGTTCTAACCTGTTGCTT (site GGGGCATCTAA)”, the “recombinant barcode read abundance (log10)” value was determined as 1.54. In the case of “GGGGCGTCTTGGGTTCTAACCTGTTGCTT (site GGGGCCTCTAA)” it was 0.0129; in that of “GGGGCGTCTTGGGTTCTAACCTGTTGCTT (site GGGGCGTCTAA)”, 2.16. For “GGGGCGTCTTGGGTTCTAACCTGTTGCTT (site GGGGCTTCTAA)”, the “recombinant barcode read abundance (log10)” value was 0.0767. In the case of “GGGGCTACTTGGGTTCTAACCTGTTGCCT (site GGGGCTACTAG)” it was 0.396; in that of “GGGGCTACTTGGGTTCTAACCTGTTGCCT (site GGGGCTACTGT)”, 0.183; in that of “GGGGTCCCTTGGGTTCTAACCTGTTGCTT (site CTCAAAGCTTC)”, 0.0621. Regarding “GGGGTCCCTTGGGTTCTAACCTGTTGCTT (site GGGGTCCCTAA)”, the “recombinant barcode read abundance (log10)” value amounted to 2.79.

For the sequence “GGGTCCACTTGGGTTCTAACCTGTTGCAT (site GGGTCCACTAA)”, the “recombinant barcode read abundance (log10)” value amounted to 0.481. Regarding “GGGTCCACTTGGGTTCTAACCTGTTGCAT (site GGGTCCACTAC)”, the “recombinant barcode read abundance (log10)” value stood at 0.13. In the case of “GGGTCCACTTGGGTTCTAACCTGTTGCAT (site GGGTCCACTAG)”, the “recombinant barcode read abundance (log10)” value stood at 0.699.

With “GGGTCCACTTGGGTTCTAACCTGTTGCAT (site GGGTCCACTAT)”, the “recombinant barcode read abundance (log10)” value was 2.17. On to “GGGTCCACTTGGGTTCTAACCTGTTGCGT (site GGGTCCACTAA)”, for which the “recombinant barcode read abundance (log10)” value stood at 0.239. For “GGGTCCACTTGGGTTCTAACCTGTTGCGT (site GGGTCCACTAC)”, the “recombinant barcode read abundance (log10)” value worked out at 2.82. For “GGGTCCACTTGGGTTCTAACCTGTTGCGT (site GGGTCCACTAG)” the value was 1.5; for “GGGTCCACTTGGGTTCTAACCTGTTGCGT (site GGGTCCACTAT)”, 1.45. On to “GGGTCCTCTTGGGTTCTAACCTGTTGCCC (site GGGTCCTCTAG)”, for which the “recombinant barcode read abundance (log10)” value was 1.36. In the case of “GGGTCCTCTTGGGTTCTAACCTGTTGCCC (site GGGTCCTCTCG)” it was 0.0863.

Consider “GGGTCCTCTTGGGTTCTAACCTGTTGCCC (site GGGTCCTCTGG)”, for which the “recombinant barcode read abundance (log10)” value is 1.23.

Regarding “GGGTCCTCTTGGGTTCTAACCTGTTGCCC (site GGGTCCTCTTG)”, the “recombinant barcode read abundance (log10)” value was 0.0208. On to “GGGTCCTCTTGGGTTCTAACCTGTTGCCG (site GGGTCCTCTAG)”, for which the “recombinant barcode read abundance (log10)” value was determined as 1.32. As for “GGGTCCTCTTGGGTTCTAACCTGTTGCCG (site GGGTCCTCTCG)”, the “recombinant barcode read abundance (log10)” value was determined as 2.01. Consider “GGGTCCTCTTGGGTTCTAACCTGTTGCCG (site GGGTCCTCTGG)”, for which the “recombinant barcode read abundance (log10)” value was determined as 0.422.

With “GGGTCCTCTTGGGTTCTAACCTGTTGCCG (site GGGTCCTCTTG)”, the “recombinant barcode read abundance (log10)” value is 0.205. In the case of “GGGTTCACTTGGGTTCTAACCTGTTGCCG (site GAGTTCACTAG)” it was 0.0415; in that of “GGGTTCACTTGGGTTCTAACCTGTTGCCG (site GGGTTCACTCG)”, 1.43; in that of “GGGTTGCCTTGGGTTCTAACCTGTTGCCT (site GAGTTGCCTAG)”, 0.945. For “GGGTTGCCTTGGGTTCTAACCTGTTGCCT (site GCGTTGCCTAG)” the value was 1.1; for “GGGTTGCCTTGGGTTCTAACCTGTTGCCT (site GGGTTGCCTAG)”, 1.46. For “GGGTTGCCTTGGGTTCTAACCTGTTGCCT (site GTGTTGCCTAG)” the value was 0.144; for “GGTAAGACTTGGGTTCTAACCTGTTGCCT (site GGAAAGACTAG)”, 0.31; for “GGTAAGACTTGGGTTCTAACCTGTTGCCT (site GGCAAGACTAG)”, 0.318. As for “GGTAAGACTTGGGTTCTAACCTGTTGCCT (site GGGAAGACTAG)”, the “recombinant barcode read abundance (log10)” value was 0.197.

With “GGTAAGACTTGGGTTCTAACCTGTTGCCT (site GGTAAGACTAG)”, the “recombinant barcode read abundance (log10)” value was 1.47. For “GGTATGTCTTGGGTTCTAACCTGTTGCTG (site CGAATGTCTCA)”, the “recombinant barcode read abundance (log10)” value was found to be 0.119. For the sequence “GGTATGTCTTGGGTTCTAACCTGTTGCTG (site GGTATGTCTCA)”, the “recombinant barcode read abundance (log10)” value was 0.857. For the sequence “GGTATGTCTTGGGTTCTAACCTGTTGCTT (site GCTATGTCTAG)”, the “recombinant barcode read abundance (log10)” value turned out to be 0.0865. In the case of “GGTATGTCTTGGGTTCTAACCTGTTGCTT (site GGTATGTCTAA)” it was 0.641; in that of “GGTCAACCTTGGGTTCTAACCTGTTGCCT (site GATCAACCTAG)”, 0.394. Turning to “GGTCAACCTTGGGTTCTAACCTGTTGCCT (site GCTCAACCTAG)”, the “recombinant barcode read abundance (log10)” value stood at 0.172. On to “GGTCAACCTTGGGTTCTAACCTGTTGCCT (site GGTCAACCTAG)”, for which the “recombinant barcode read abundance (log10)” value was 1.14.

On to “GGTCAACCTTGGGTTCTAACCTGTTGCCT (site GTTCAACCTAG)”, for which the “recombinant barcode read abundance (log10)” value stood at 0.486. In the case of “GGTCAGTCTTGGGTTCTAACCTGTTGCGG (site GGTCAGTCTCC)” it was 1.84.

As for “GGTCAGTCTTGGGTTCTAACCTGTTGCGG (site TAGTTTACTTA)”, the “recombinant barcode read abundance (log10)” value stood at 0.0859. In the case of “GGTCATGCTTGGGTTCTAACCTGTTGCCT (site GGTCATACTAG)” it was 0.169.
